From publication PMC6399515 (Insect Biochemistry and Molecular Biology, 2016)

Assays:
CYP6P2 [1] = biological target: T1, CYP6P2 (Anopheles gambiae, UniProt Q8T629, V81I); assay: biochemical
T1 sequence (Q8T629 1-507 V81I): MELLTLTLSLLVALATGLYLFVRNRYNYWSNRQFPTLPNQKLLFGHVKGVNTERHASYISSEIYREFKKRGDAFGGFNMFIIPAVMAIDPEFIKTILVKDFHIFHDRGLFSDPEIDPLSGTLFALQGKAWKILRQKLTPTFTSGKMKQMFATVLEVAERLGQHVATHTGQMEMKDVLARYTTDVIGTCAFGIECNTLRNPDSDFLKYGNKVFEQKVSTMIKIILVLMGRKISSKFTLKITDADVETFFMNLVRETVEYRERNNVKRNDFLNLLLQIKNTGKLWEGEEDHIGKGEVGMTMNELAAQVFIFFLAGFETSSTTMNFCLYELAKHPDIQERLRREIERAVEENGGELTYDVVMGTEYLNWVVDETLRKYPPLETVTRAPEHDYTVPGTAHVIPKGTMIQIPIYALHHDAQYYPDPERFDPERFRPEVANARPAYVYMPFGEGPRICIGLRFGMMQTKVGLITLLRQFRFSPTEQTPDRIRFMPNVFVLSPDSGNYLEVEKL
T1 sequence (Q7QFI3 1-587 partner): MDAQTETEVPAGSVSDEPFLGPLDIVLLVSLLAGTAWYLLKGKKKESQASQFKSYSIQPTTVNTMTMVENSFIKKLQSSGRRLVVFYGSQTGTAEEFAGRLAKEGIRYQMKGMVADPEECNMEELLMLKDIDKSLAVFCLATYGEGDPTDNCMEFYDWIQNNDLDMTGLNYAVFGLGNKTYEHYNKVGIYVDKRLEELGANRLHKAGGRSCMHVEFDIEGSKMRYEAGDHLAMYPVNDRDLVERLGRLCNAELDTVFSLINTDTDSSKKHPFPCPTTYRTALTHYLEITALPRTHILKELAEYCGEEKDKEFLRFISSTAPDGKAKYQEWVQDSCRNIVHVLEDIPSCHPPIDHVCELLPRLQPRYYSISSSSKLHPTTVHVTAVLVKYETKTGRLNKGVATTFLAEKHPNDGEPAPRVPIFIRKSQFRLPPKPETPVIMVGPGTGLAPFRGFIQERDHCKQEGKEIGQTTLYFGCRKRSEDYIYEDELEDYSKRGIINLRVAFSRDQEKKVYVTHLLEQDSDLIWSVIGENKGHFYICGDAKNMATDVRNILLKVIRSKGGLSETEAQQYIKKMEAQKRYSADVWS
T1 sequence (Q86QH4 1-128 partner): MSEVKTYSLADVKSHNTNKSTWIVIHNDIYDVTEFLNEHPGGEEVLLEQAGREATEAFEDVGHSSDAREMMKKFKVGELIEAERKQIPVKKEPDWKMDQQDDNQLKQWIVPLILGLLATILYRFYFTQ

CYP6M2 [2] = biological target: T2, CYP6M2 (Anopheles gambiae, UniProt Q7Q449); assay: biochemical
T2 sequence (Q7Q449 1-499, one chain of several): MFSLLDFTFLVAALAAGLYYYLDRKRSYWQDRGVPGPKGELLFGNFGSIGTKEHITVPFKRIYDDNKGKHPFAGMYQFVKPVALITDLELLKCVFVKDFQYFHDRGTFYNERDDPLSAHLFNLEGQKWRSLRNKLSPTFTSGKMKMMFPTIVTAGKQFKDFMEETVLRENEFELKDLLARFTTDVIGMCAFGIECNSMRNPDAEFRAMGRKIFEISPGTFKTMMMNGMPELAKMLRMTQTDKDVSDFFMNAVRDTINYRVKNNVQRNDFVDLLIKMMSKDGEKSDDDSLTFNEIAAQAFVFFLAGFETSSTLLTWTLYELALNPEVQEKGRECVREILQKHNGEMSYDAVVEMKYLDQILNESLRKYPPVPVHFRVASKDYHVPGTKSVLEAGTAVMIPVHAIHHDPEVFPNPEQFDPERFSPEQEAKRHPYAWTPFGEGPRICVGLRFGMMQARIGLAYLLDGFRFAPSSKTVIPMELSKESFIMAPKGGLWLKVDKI

CYP6M2 [3] = biological target: T2, CYP6M2
CYP6P2 [4] = biological target: T1, CYP6P2
CYP6P3 = biological target: T3, CYP6P3 (Anopheles gambiae, UniProt Q8T632)
T3 sequence (Q8T632 1-509): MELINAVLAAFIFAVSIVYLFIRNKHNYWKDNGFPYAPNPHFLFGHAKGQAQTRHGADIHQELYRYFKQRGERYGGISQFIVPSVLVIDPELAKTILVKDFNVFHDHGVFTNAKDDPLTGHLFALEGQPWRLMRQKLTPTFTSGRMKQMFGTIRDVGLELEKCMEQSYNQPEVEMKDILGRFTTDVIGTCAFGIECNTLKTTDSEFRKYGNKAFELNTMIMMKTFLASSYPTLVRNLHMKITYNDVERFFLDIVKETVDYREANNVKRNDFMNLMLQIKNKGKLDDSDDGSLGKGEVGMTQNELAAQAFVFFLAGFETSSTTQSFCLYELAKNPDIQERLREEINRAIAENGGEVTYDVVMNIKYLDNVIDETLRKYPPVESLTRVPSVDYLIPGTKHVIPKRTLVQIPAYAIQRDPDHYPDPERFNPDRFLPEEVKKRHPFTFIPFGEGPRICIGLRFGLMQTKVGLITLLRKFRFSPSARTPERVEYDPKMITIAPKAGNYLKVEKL
T3 sequence (Q86QH5 1-679 partner): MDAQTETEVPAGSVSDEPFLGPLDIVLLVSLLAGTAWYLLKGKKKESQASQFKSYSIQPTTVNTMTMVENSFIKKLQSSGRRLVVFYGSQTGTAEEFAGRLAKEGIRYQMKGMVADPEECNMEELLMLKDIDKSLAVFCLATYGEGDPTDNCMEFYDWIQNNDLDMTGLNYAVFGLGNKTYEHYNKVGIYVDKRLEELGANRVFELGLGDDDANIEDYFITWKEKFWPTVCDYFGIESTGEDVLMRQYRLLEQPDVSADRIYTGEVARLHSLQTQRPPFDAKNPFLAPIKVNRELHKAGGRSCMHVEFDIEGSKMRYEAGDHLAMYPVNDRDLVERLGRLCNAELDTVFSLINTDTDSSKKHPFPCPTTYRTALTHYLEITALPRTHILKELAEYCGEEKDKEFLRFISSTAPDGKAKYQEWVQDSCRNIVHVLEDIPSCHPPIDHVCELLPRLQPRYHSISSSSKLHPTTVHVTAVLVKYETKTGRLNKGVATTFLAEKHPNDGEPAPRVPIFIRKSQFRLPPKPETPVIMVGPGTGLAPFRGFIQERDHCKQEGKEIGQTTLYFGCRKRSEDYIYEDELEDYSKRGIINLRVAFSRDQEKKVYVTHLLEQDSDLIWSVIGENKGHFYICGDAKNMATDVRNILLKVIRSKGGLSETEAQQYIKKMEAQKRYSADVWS
T3 sequence (Q86QH4 1-128 partner): T1 sequence (Q86QH4 1-128 partner)

SMILES | IC50 (CYP6P2 [1]; IC50 of DEF metabolism) | IC50 (CYP6M2 [2]) | Inhibition ratio (%): reduction of PPF depletion caused by PBO (CYP6M2 [3]) | Inhibition ratio (%): reduction of PPF depletion caused by PBO (CYP6P2 [4]) | Inhibition ratio (%): reduction of PPF depletion caused by PBO (CYP6P3) | IC50 (CYP6P2 [1]; category of inhibition of DEF metabolism) | % PPF depletion + PBO (CYP6M2 [3]; Anopheles gambiae, pH 7.4) | % PPF depletion −PBO (CYP6M2 [3]; Anopheles gambiae, pH 7.4) | % PPF depletion + PBO (CYP6P2 [4]; Anopheles gambiae, pH 7.4) | % PPF depletion −PBO (CYP6P2 [4]; Anopheles gambiae, pH 7.4) | % PPF depletion + PBO (CYP6P3; Anopheles gambiae, pH 7.4)
CC1(C)C(C=C(Cl)Cl)C1C(=O)OCc1cccc(Oc2ccccc2)c1 (mixture of isomers) [Permethrin, 3-phenoxybenzyl (1R,S)-cis,trans-3-(2,2-dichlorovinyl)-2,2-dimethylcyclopropanecarboxylate] | 8.61 µM | 8.07 µM | – | – | – | – | – | – | – | – | –
CCCCOCCOCCOCc1cc2c(cc1CCC)OCO2 [PBO, piperonyl butoxide] | – | – | 95.3% | 91.0% | 91.3% | – | – | – | – | – | –
CC(COc1ccc(Oc2ccccc2)cc1)Oc1ccccn1 (stereo not shown) [PPF, pyriproxyfen] | 9.95 µM | 14.1 µM | – | – | – | 1 to 10 µM | 1.44 ± 0.67% | 30.93 ± 4.65% | 6.45 ± 3.22% | 58.03 ± 1.35% | 8.68 ± 1.74%
